According to PMC4072508, “Genome-Wide Prediction and Validation of Peptides That Bind Human Prosurvival Bcl-2 Proteins” (PLoS Computational Biology, 2014):
“And” between values parts separate entries of the source, which are not always exact repeats. Equal values may be shown once. Read-outs that look alike come from different tables or passages of the source. Residues, ends and D or L forms follow the SMILES beside them. No end group written: not given here.

Columns and labels:
Bcl-2 = biological target: T1, Bcl-2 (Homo sapiens, UniProt P10415, DEL53-91); assay: Fluorescence polarization direct binding
T1 construct: myc- Bcl-2 FP; made in house
Method: (§1) Peptides were purified by reverse-phase HPLC using a C18 column and a linear water/acetonitrile gradient. We re-analyzed the purified peptide by mass spectrometry if there was not a single well-defined peak in HPLC chromatogram.
(§2) Fluorescence polarization (FP) assays were done at 25°C in assay buffer (20 mM NaPO4, 50 mM NaCl, 1 mM EDTA, 0.001% Triton X (v/v), pH 7.8). […] For all FP experiments, the total well volume was 120 µl. […] Anisotropy was measured using a Spectramax M5 plate reader from Molecular Devices.
(§3) Direct binding curves were fit using Pylab/Scipy/Optimize to a single-site binding model utilized previously.
(§4) ^1Best-fit KD values determined by combining all replicate titration curves and fitting to a direct binding model (see Methods). […] Values with an X followed by a number indicate the highest concentration (the number, in nM) for which signal was measured yet no binding was detected.

Bcl-w = biological target: T2, Bcl-w (Homo sapiens, UniProt Q92843, Q133R); assay: Fluorescence polarization direct binding
T2 construct: myc-Bcl-w SPOT array & FP; made in house
T2 sequence (Q92843 with tags, fused parts or gaps Q133R): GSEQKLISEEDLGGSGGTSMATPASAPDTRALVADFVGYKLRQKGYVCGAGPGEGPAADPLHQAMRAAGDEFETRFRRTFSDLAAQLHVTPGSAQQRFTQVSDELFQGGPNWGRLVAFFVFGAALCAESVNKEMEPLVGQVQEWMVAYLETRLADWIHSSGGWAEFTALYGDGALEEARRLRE
Method: as §1, §2, §3, §4

Mcl-1 [1] = biological target: T3, Mcl-1 (Homo sapiens, UniProt Q07820); assay: Fluorescence polarization direct binding
T3 construct: myc-Mcl-1 SPOT array & FP; made in house
Method: as §1, §2, §3, §4

Bfl-1 = biological target: T4, Bfl-1 (Homo sapiens, UniProt Q16548); assay: Fluorescence polarization direct binding
T4 construct: myc- Bfl-1 SPOT array & FP; made in house
T4 sequence (Q16548 with tags, fused parts or gaps): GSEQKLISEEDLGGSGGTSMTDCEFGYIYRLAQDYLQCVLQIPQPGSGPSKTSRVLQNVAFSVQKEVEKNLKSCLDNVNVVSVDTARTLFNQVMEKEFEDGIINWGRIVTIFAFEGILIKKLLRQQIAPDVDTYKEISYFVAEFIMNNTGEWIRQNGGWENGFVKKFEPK
Method: as §1, §2, §3, §4

Bcl-xL = biological target: T5, Bcl-xL (Homo sapiens, UniProt Q07817); assay: Fluorescence polarization direct binding
T5 construct: myc-Bcl-xL SPOT array & FP; made in house
Method: as §1, §2, §3, §4

Mcl-1 [2] = biological target: T3, Mcl-1; details: read-out: Binder class, Mcl-1, cited from earlier work
From the text: Negative control mutatio ...

[3] = FP direct binding, 10 nM FAM-labeled peptide, receptor titrated, 25°C, pH 7.8, fit of all replicate titrations, X+number in a cell = highest concentration (nM) measured with no binding detected, given here as >, SPNS1 fit to raw fluorescence, read-out: Best-fit KD, Bcl-2
[4] = benchmark classification of peptides newly characterized in this study, read-out: Binder class, Bcl-2
[5] = FP direct binding, 10 nM FAM-labeled peptide, receptor titrated, 25°C, pH 7.8, fit of all replicate titrations, X+number in a cell = highest concentration (nM) measured with no binding detected, given here as >, SPNS1 fit to raw fluorescence, read-out: Best-fit KD, Bcl-w
[6] = benchmark classification of peptides newly characterized in this study, read-out: Binder class, Bcl-w
[7] = Binder class, Mcl-1, benchmark classification of peptides newly characterized in this study
[8] = FP direct binding, 10 nM FAM-labeled peptide, receptor titrated, 25°C, pH 7.8, fit of all replicate titrations, X+number in a cell = highest concentration (nM) measured with no binding detected, given here as >, SPNS1 fit to raw fluorescence
[9] = FP direct binding, 10 nM FAM-labeled peptide, receptor titrated, 25°C, pH 7.8, fit of all replicate titrations, X+number in a cell = highest concentration (nM) measured with no binding detected, given here as >, SPNS1 fit to raw fluorescence, read-out: Best-fit KD, Bfl-1
[10] = benchmark classification of peptides newly characterized in this study, read-out: Binder class, Bfl-1
[11] = FP direct binding, 10 nM FAM-labeled peptide, receptor titrated, 25°C, pH 7.8, fit of all replicate titrations, X+number in a cell = highest concentration (nM) measured with no binding detected, given here as >, SPNS1 fit to raw fluorescence, read-out: Best-fit KD, Bcl-xL
[12] = benchmark classification of peptides newly characterized in this study, read-out: Binder class, Bcl-xL
[13] = S2 Bim variants, ref Dutta et al. (2013)

T3 sequence (Q07820 with tags, fused parts or gaps): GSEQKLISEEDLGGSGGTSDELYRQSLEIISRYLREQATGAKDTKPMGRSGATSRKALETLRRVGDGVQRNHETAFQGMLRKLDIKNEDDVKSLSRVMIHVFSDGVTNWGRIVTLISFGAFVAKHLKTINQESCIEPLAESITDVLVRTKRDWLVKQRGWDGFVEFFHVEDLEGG
T1 sequence (P10415 with tags, fused parts or gaps DEL53-91): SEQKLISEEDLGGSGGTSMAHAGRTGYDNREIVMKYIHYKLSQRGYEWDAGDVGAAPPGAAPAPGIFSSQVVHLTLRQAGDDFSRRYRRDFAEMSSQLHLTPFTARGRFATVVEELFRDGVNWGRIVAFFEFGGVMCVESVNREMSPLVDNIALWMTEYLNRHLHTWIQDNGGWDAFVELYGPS
T5 sequence (Q07817 with tags, fused parts or gaps): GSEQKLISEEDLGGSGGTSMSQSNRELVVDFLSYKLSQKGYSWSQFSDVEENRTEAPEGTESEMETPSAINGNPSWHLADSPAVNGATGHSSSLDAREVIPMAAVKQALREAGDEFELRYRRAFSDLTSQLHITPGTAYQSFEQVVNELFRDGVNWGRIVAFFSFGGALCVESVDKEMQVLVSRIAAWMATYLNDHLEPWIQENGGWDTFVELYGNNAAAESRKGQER

| Molecule | Kd (Bcl-2; [3]) | Kd (Bcl-2; [4]) [nM] | Kd (Bcl-w; [5]) | Kd (Bcl-w; [6]) [nM] | Kd (Mcl-1 [1]; [7]) [nM] | Kd (Mcl-1 [1]; [8]) | Kd (Bfl-1; [9]) | Kd (Bfl-1; [10]) [nM] | Kd (Bcl-xL; [11]) [nM] | Best-fit KD, Bcl-2 (Bcl-2; [8]) | Best-fit KD, Bcl-w (Bcl-w; [8]) | Best-fit KD, Bcl-xL (Bcl-xL; [8]) | Kd (Bcl-xL; [12]) [nM] | Kd (Mcl-1 [2]; [13]) [nM] | Kd (Mcl-1 [2]; S1 Bim variants, specific binding measured using yeast display, ref Dutta et al. (2010)) [nM] |
| --- | --- | --- | --- | --- | --- | --- | --- | --- | --- | --- | --- | --- | --- | --- | --- |
| CC[C@H](C)[C@H](N)C(=O)N[C@H](C(=O)N[C@@H](CCC(N)=O)C(=O)N[C@@H](CCSC)C(=O)N[C@H](C(=O)N[C@H](C(=O)N[C@@H](CCC(=O)O)C(=O)N[C@@H](CC(C)C)C(=O)N[C@@H](CC(C)C)C(=O)N[C@@H](CCCCN)C(=O)N[C@@H](CCCNC(=N)N)C(=O)N[C@H](C(=O)NCC(=O)N[C@@H](CC(=O)O)C(=O)N[C@@H](CCC(N)=O)C(=O)N[C@@H](Cc1c[nH]c2ccccc12)C(=O)N[C@@H](CCC(=O)O)C(=O)N[C@@H](CCC(=O)O)C(=O)N[C@@H](CCC(=O)O)C(=O)N[C@@H](CCC(N)=O)C(=O)N[C@@H](CO)C(=O)N[C@@H](CC(C)C)C(=O)N[C@@H](C)C(N)=O)C(C)C)C(C)C)[C@@H](C)CC)[C@@H](C)CC [C6orf222] | < 30 nM and 0.3 nM | < 1000 | < 30 nM and 13 nM | < 1000 | < 1000 | < 30 nM and 23 nM | < 30 nM and 1 nM | < 1000 |  |  |  |  |  |  |  |
| CC[C@H](C)[C@H](NC(=O)[C@@H](NC(=O)[C@H](CCSC)NC(=O)CNC(=O)[C@H](CCCNC(=N)N)NC(=O)[C@H](CO)NC(=O)[C@H](CCC(N)=O)NC(=O)[C@H](CC(C)C)NC(=O)[C@H](CC(C)C)NC(=O)[C@H](CO)NC(=O)CNC(=O)[C@H](CS)NC(=O)[C@@H](NC(=O)[C@H](CC(=O)O)NC(=O)[C@H](CCCNC(=N)N)NC(=O)[C@H](CCSC)NC(=O)[C@H](CC(C)C)NC(=O)[C@H](CCCCN)NC(=O)[C@H](CO)NC(=O)[C@@H](NC(=O)[C@H](CS)NC(=O)[C@H](CO)NC(=O)[C@H](CC(C)C)NC(=O)[C@H](CCC(N)=O)NC(=O)[C@H](CS)NC(=O)[C@@H](N)CC(C)C)C(C)C)C(C)C)C(C)C)C(N)=O [FBXO30] (H-LCQLSCVSKLMRDVCGSLLQSRGMVI-NH2) | 2560 nM |  | 3280 nM |  | 1000 to 10000 | > 10000 nM | > 10000 nM |  | > 10000 |  |  |  |  |  |  |
| CC[C@H](C)[C@H](NC(=O)[C@H](CCC(=O)O)NC(=O)[C@H](C)NC(=O)[C@H](CO)NC(=O)[C@H](Cc1ccccc1)NC(=O)[C@H](CCC(N)=O)NC(=O)[C@H](CC(=O)O)NC(=O)[C@H](C)NC(=O)[C@H](CC(C)C)NC(=O)[C@H](Cc1c[nH]cn1)NC(=O)[C@H](CCCNC(=N)N)NC(=O)[C@H](CC(C)C)NC(=O)[C@H](CCC(=O)O)NC(=O)[C@H](CCC(N)=O)NC(=O)[C@H](C)NC(=O)[C@H](CCCCN)NC(=O)[C@@H]1CCCN1C(=O)[C@H](CCCNC(=N)N)NC(=O)[C@@H](NC(=O)[C@@H](N)CO)[C@@H](C)CC)C(=O)N[C@@H](C)C(=O)N[C@@H](CCCNC(=N)N)C(=O)N[C@@H](CCCNC(=N)N)C(N)=O [MCF2L] | 6 nM | < 1000 | 7 nM | < 1000 | > 10000 | > 4000 nM | > 4100 nM | > 10000 | 4 | bound tightly | bound tightly | bound tightly | < 1000 |  |  |
| CC(C)C[C@H](NC(=O)CNC(=O)[C@@H](NC(=O)[C@H](CCCCN)NC(=O)[C@H](CCCCN)NC(=O)[C@H](CC(N)=O)NC(=O)[C@H](CCC(=O)O)NC(=O)[C@H](CC(=O)O)NC(=O)[C@@H](N)[C@@H](C)O)C(C)C)C(=O)N[C@@H](C)C(=O)N[C@@H](CC(C)C)C(=O)N[C@@H](CCCCN)C(=O)N[C@@H](CC(=O)O)C(=O)N[C@@H](CC(C)C)C(=O)N[C@@H](C)C(=O)N[C@@H](CCCCN)C(=O)N[C@@H](CCC(N)=O)C(=O)N[C@@H](Cc1ccc(O)cc1)C(=O)N[C@@H](CO)C(=O)N[C@@H](CC(=O)O)C(=O)N[C@@H](CCCNC(=N)N)C(=O)N[C@@H](CC(C)C)C(=O)N[C@@H](CCC(=O)O)C(=O)N[C@@H](CS)C(=O)N[C@@H](CS)C(=O)N[C@@H](CCC(=O)O)C(N)=O [NUB1] (H-TDENKKVGLALKDLAKQYSDRLECCE-NH2) | 562 nM |  | > 4000 nM |  | > 10000 | > 10000 nM | > 4000 nM |  | 2720 |  |  |  |  |  |  |
| CC[C@H](C)[C@H](NC(=O)[C@H](CCC(N)=O)NC(=O)[C@H](C)NC(=O)[C@H](CC(C)C)NC(=O)[C@H](Cc1ccc(O)cc1)NC(=O)[C@H](CCCNC(=N)N)NC(=O)[C@H](CO)NC(=O)[C@H](CCC(=O)O)NC(=O)[C@@H]1CCCN1C(=O)[C@@H](NC(=O)[C@@H](NC(=O)[C@H](CCC(=O)O)NC(=O)[C@@H](NC(=O)[C@@H](N)CCCCN)[C@@H](C)CC)[C@@H](C)O)[C@@H](C)O)C(=O)NCC(=O)N[C@@H](CC(=O)O)C(=O)N[C@@H](CO)C(=O)N[C@H](C(=O)N[C@@H](CO)C(=O)N[C@@H](CC(C)C)C(=O)N[C@H](C(=O)N[C@@H](CS)C(=O)N[C@@H](CO)C(=O)N[C@H](C(=O)N[C@H](C(=O)NCC(N)=O)[C@@H](C)O)[C@@H](C)O)[C@@H](C)O)C(C)C [VCAM1] | > 3050 nM |  | > 4350 nM |  |  |  | > 3370 nM |  |  |  |  |  |  |  |  |
| AIRPRAVELRHLADDFINGNKKK-NH2 [MCF2L2] | 60 nM | < 1000 | 1120 nM | 1000 to 10000 | > 10000 | > 4000 nM | > 3370 nM | > 10000 | 292 |  |  |  | < 1000 |  |  |
| APYYLSRNLKQQADIIFMPYNYL-NH2 [RTEL1] | 342 nM | 1000 to 10000 | > 100000 nM | 1000 to 10000 | 1000 to 10000 | > 4000 nM | > 4000 nM | > 10000 | 1380 |  |  |  | 1000 to 10000 |  |  |
| ATKRETAATFLKKVAKEFGFQNNGFS-NH2 [NPLOC4] | 2060 nM | > 10000 | > 4500 nM | > 10000 | 1000 to 10000 | > 4000 nM | > 4670 nM | > 10000 | > 100000 |  |  |  | > 10000 |  |  |
| DARDYAVVLRKYADKIYSISMKH-NH2 [FOLH1] | 70 nM | > 10000 | 907 nM | > 10000 |  |  | 1600 nM | 1000 to 10000 |  |  |  |  | < 1000 |  |  |
| FIQSLAAMLKQYADKLEFMHILT-NH2 [CASP3] | 264 nM | < 1000 | 64 nM | < 1000 | 1000 to 10000 |  | 43 nM | < 1000 |  |  |  |  |  |  |  |
| PEIWIAQELRRAGDVLNAYYARR |  |  |  |  |  |  |  |  |  |  |  |  |  | < 1000 |  |
| PEIWIAQEVDRIGDEVNAYYARR |  |  |  |  |  |  |  |  |  |  |  |  |  |  | < 1000 |
| PEIWIAQGLRRIGDTWNAYYARR |  |  |  |  |  |  |  |  |  |  |  |  |  | < 1000 |  |
